# From patent US20130065897A1, “COMPOUNDS, PREPARATION AND USES THEREOF” (PETER MACCALLUM CANCER INSTITUTE, priority 2009, published 2013)
# Legend:
# [1] = tested on: KHYG-1 NK cell-mediated lysis of K562 cells; assay: Inhibition of KHYG-1 NK cell-mediated lysis of K562 cells (51Cr release); format: cell-based; settings: K562 target cells, Effector:Target 2:1, 4 hours 37° C.
# Method: Inhibition of KHYG-1 NK Cell-Mediated lysis of K562 Cells
# KHYG-1 cells were washed and resuspended in RPMI+0.1% BSA at 4×10^5 cells/ml and 50 μl of KHYG-1 cells were dispensed to each well of a 96-well V-bottom, plate. Test compounds were added to KHYG-1 cells at various concentrations up to 20 μM and incubated at RT for 20 minutes. 1×10^6 K562 target cells were labelled with 75 μCi ^51Cr in 200 μl RPMI for 90 mins at 37° C., cells were washed as described above and resuspended in 5 ml RPMI+0.1% BSA. 50 μl of ^51Cr labelled K562 leukemia target cells were added to each well of the KHYG-1 plate (Effector:Target 2:1) and incubated at 37° C. for 4 hours. ^51Cr release was assayed using a Skatron Harvesting Press and radioactivity estimated on a Wallac Wizard 1470 Automatic Gamma counter (Turku, Finland). The percentage of specific cytotoxicity was calculated by the formula: […]
# and expressed as the mean of triplicate assays +/−standard error of the mean.
# [2] = tested on: KHYG-1 NK cells; assay: Toxicity to KHYG-1 NK cells (trypan blue viability); format: cell-based; settings: viable cells as percentage of total (% viability), 18 to 24 hours
# Method: Toxicity to KHYG-1 NK Cells
# KHYG-1 cells were washed and resuspended in RPMI+0.1% BSA at 4×10^5 cells/ml and 50 μl of KHYG-1 cells were dispensed to each well of a 96-well V-bottom plate. Test compounds were added to KHYG-1 cells at a concentration of 20 μM and incubated at RT for 20 minutes. 100 μL of RPMI 0.1% BSA was added and the cells were incubated for 4 hours at 37° C. then washed ×3 in RPMI+0.1% BSA. Cells were then resuspended in 200 μl of complete medium and incubated for 18 to 24 hours at 37° C. Trypan blue was added to each well and viable (clear) cells counted as a percentage of total (clear+blue) cell number (% viability).
# [3] = target: recombinant perforin (UniProt P10820); format: cell-based; settings: read-out: Jurkat IC50; recombinant perforin pre-incubated 30 min with compound; 51Cr-labelled Jurkat cells, 0.1% BSA, 37° C. 4 hours
# Sequence of recombinant perforin (P10820 whole entry): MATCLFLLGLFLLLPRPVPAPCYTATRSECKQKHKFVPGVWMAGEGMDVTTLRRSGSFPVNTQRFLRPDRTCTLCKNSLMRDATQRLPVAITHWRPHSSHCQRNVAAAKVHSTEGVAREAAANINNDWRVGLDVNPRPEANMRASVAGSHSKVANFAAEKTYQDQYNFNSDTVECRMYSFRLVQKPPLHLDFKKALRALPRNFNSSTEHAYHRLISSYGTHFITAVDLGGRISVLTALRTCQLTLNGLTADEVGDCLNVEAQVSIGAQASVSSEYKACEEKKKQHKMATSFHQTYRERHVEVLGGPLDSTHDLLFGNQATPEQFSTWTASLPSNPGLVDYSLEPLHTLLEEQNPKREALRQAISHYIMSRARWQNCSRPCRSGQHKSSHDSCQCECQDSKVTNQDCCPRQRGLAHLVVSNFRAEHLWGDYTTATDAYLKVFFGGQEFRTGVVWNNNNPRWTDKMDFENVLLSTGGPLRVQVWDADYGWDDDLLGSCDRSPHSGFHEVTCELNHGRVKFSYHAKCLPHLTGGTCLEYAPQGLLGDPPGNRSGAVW
# Method: Inhibition of Perforin-Mediated Lysis of Jurkat Cells
# The ability of the compounds to inhibit the lysis of nucleated (Jurkat T lymphoma) cells in the presence of 0.1% BSA, as measured by release of ^51Cr was measured. Jurkat target cells were labelled by incubation in medium with 100 μCi ^51Cr for one hour. The cells were then washed three times to remove unincorporated isotope and re-suspended at 1×10^5 cells per mL in RPMI buffer supplemented with 0.1% BSA. […] The supernatant was collected and assessed for its radioactive content on a gamma counter (Wallac Wizard 1470 automatic gamma counter). Each data point was performed in triplicate and an IC50 was calculated from the range of concentrations described to above.
Structure (SMILES),inhibition at 20 µM [1],percent viable KHYG-1 cells (trypan blue) at 20 μM [2],melting point,IC50 [3]
"O=C1NC(=S)N/C1=C/c1ccc(-c2ccc3c(c2)COC3=O)o1 [Cmpd 1, (E,Z)-5-((5-(1-Oxo-1,3-dihydroisobenzofuran-5-yl)furan-2-yl)methylene)-2-thioxoimidazolidin-4-one]",95%,66%,> 300 °C,–
"O=C1NC(=O)/C(=C\c2ccc(-c3ccc4c(c3)COC4=O)s2)N1 [Cmpd 3, (E,Z)-5-((5-(1-Oxo-1,3-dihydroisobenzofuran-5-yl)thiophen-2-yl)methylene)imidazolidine-2,4-dione]",70%,82%,> 300 °C,–
"[H]/N=C1/NC(=O)/C(=C\c2ccc(-c3ccc4c(c3)COC4=O)s2)N1C [Cmpd 4, (E,Z)-2-Imino-1-methyl-5-((5-(1-oxo-1,3-dihydroisobenzofuran-5-yl)thiophen-2-yl)methylene)imidazolidin-4-one]",50%,100%,> 300 °C,–
"O=C1NC(=S)N/C1=C\c1cccc(-c2ccc3c(c2)COC3=O)c1 [Cmpd 5, (E,Z)-5-(3-(1-Oxo-1,3-dihydroisobenzofuran-5-yl)benzylidene)-2-thioxoimidazolidin-4-one]",64%,97%,285 to 288 °C,–
"O=C1NC(=S)N/C1=C\c1ccc(-c2ccc3c(c2)COC3=O)cc1 [Cmpd 6, (E,Z)-5-(4-(1-Oxo-1,3-dihydroisobenzofuran-5-yl)benzylidene)-2-thioxoimidazolidin-4-one]",50%,95%,> 300 °C,–
"O=C1NC(=S)N/C1=C\c1ccc(-c2ccc3c(c2)COC3=O)cn1 [Cmpd 8, (E,Z)-5-((5-(1-oxo-1,3-dihydroisobenzofuran-5-yl)pyridin-2-yl)methylene)-2-thioxoimidazolidin-4-one]",57%,96%,> 300 °C,–
O=C1NC(=S)N/C1=C\c1csc2ccc(-c3ccc4c(c3)COC4=O)cc12 [Cmpd 9],80%,0%,> 300 °C,–
"O=C1NC(=S)N/C1=C/c1cc(-c2ccc3c(c2)COC3=O)cs1 [Cmpd 15, (E,Z)-5-((4-(1-Oxo-1,3-dihydroisobenzofuran-5-yl)thiophen-2-yl)methylene)-2-thioxoimidazolidin-4-one]",67%,96%,> 300 °C,–
"O=C1NC(=S)N/C1=C/c1ccc(-c2cccnc2)s1 [Cmpd 26, (E,Z)-5-((5-(Pyridin-3-yl)thiophen-2-yl)methylene)-2-thioxoimidazolidin-4-one]",–,–,> 295 °C,12.9 µM
"O=C1C/C(=C/c2ccc(-c3ccc4c(c3)COC4=O)s2)C(=O)N1 [Cmpd 36, (E,Z)-3-((5-(1-Oxo-1,3-dihydroisobenzofuran-5-yl)thiophen-2-yl)methylene)pyrrolidine-2,5-dione]",51%,65%,> 295 °C,–
"O=C1NCC/C1=C\c1ccc(-c2ccc3c(c2)COC3=O)s1 [Cmpd 37, (E,Z)-3-((5-(1-Oxo-1,3-dihydroisobenzofuran-5-yl)thiophen-2-yl)methylene)pyrrolidin-2-one]",20%,97%,224 to 227 °C,–
"O=C1NC(=S)N/C1=C\c1cccc(-c2ccc3c(c2)CNC3=O)c1 [Cmpd 49, (E,Z)-5-(3-((5-Oxo-2-thioxoimidazolidin-4-ylidene)methyl)phenyl)isoindolin-1-one]",8%,–,> 300 °C,3.44 µM
"O=C1NC(=S)N/C1=C/c1cc(-c2ccc3c(c2)CNC3=O)cs1 [Cmpd 50, (E,Z)-5-(5-((5-Oxo-2-thioxoimidazolidin-4-ylidene)methyl)thiophen-3-yl)isoindolin-1-one]",42%,–,> 300 °C,3 µM
"O=C1NC(=S)N/C1=C/c1ccc(-c2ccc3c(c2)COC3=O)[nH]1 [Cmpd 53, (E,Z)-5-((5-(1-Oxo-1,3-dihydroisobenzofuran-5-yl)-1H-pyrrol-2-yl)methylene)-2-thioxoimidazolidin-4-one]",30%,–,> 300 °C,2.45 µM
"O=C1NC(=S)N/C1=C/c1cnc(-c2ccc3c(c2)COC3=O)o1 [Cmpd 54, (E,Z)-5-((2-(1-Oxo-1,3-dihydroisobenzofuran-5-yl)oxazol-5-yl)methylene)-2-thioxoimidazolidin-4-one]",55%,100%,> 295 °C,–
"O=C1NC(=S)N/C1=C\c1nc(-c2ccc3c(c2)COC3=O)cs1 [Cmpd 56, (E,Z)-5-((4-(1-Oxo-1,3-dihydroisobenzofuran-5-yl)thiazol-2-yl)methylene)-2-thioxoimidazolidin-4-one]",–,–,> 295 °C,1.41 µM
"O=C1NC(=S)N/C1=C\c1csc(-c2ccc3c(c2)COC3=O)n1 [Cmpd 57, (E,Z)-5-((2-(1-Oxo-1,3-dihydroisobenzofuran-5-yl)thiazol-4-yl)methylene)-2-thioxoimidazolidin-4-one]",–,–,> 295 °C,0.34 µM
"O=C1NC(=S)N/C1=C\c1cc(-c2ccc3c(c2)COC3=O)no1 [Cmpd 58, (E,Z)-5-((3-(1-Oxo-1,3-dihydroisobenzofuran-5-yl)isoxazol-5-yl)methylene)-2-thioxoimidazolidin-4-one]",39%,82%,> 300 °C,–
"O=C1NC(=S)N/C1=C\c1csnc1-c1ccc2c(c1)COC2=O [Cmpd 59, (E,Z)-5-((3-(1-Oxo-1,3-dihydroisobenzofuran-5-yl)isothiazol-4-yl)methylene)-2-thioxoimidazolidin-4-one]",24%,93%,> 300 °C,–
"O=C1NC(=S)N/C1=C\c1cc(-c2ccc3c(c2)COC3=O)ns1 [Cmpd 60, (E,Z)-5-((3-(1-Oxo-1,3-dihydroisobenzofuran-5-yl)isothiazol-5-yl)methylene)-2-thioxoimidazolidin-4-one]",45%,–,> 300 °C,1.44 µM
"O=C1NC(=S)N/C1=C/c1ccc(-c2ccc3c(c2)CN(CCN2CCOCC2)C3=O)s1 [Cmpd 67, (E,Z)-2-(2-Morpholinoethyl)-5-(5-((5-oxo-2-thioxoimidazolidin-4-ylidene)methyl)thiophen-2-yl)isoindolin-1-one]",78%,73%,261 to 264 °C,–
"CN1CCN(CCCN2Cc3cc(-c4ccc(/C=C5/NC(=S)NC5=O)s4)ccc3C2=O)CC1 [Cmpd 76, (E,Z)-2-(3-(4-Methylpiperazin-1-yl)propyl)-5-(5-((5-oxo-2-thioxoimidazolidin-4-ylidene)methyl)thiophen-2-yl)isoindolin-1-one]",58%,–,197 to 201 °C,> 20 µM
"O=C1NC(=S)N/C1=C/c1cc2cc(-c3ccc4c(c3)COC4=O)ccc2s1 [Cmpd 79, (E,Z)-5-((5-(1-Oxo-1,3-dihydroisobenzofuran-5-yl)benzo[b]thiophen-2-yl)methylene)-2-thioxoimidazolidin-4-one]",59%,72%,> 305 °C,–
"O=C1NC(=S)N/C1=C\c1ccc(-c2ccc3c(c2)C(=O)NCC3)s1 [Cmpd 81, (E,Z)-7-(5-((5-Oxo-2-thioxoimidazolidin-4-ylidene)methyl)thiophen-2-yl)-3,4-dihydroisoquinolin-1(2H)-one]",62%,88%,–,0.67 µM
"O=C1NC(=S)N/C1=C\c1ccc(-c2ccc3c(c2)CCNC3=O)s1 [Cmpd 82, (E,Z)-6-(5-((5-Oxo-2-thioxoimidazolidin-4-ylidene)methyl)thiophen-2-yl)-3,4-dihydroisoquinolin-1(2H)-one]",92%,80%,–,1.14 µM
